In PubChem BioAssay AID248 (DTP/NCI, 2004):
Values joined by “and” are separate entries in the source; they are usually repeats but may differ in a detail not shown here. Equal entries are not always repeated. Inconclusive results and toxic doses are left out. No stated cut-off is given here; in the data, active means T/C of 150% or more; inactive means T/C below 125%.

Tested on: L1210 leukemia ip in BDF1 mice, survival T/C
Test: NCI In Vivo Anticancer Drug Screen. Data for tumor model L1210 Leukemia (intraperitoneal) in B6D2F1 (BDF1) mice
Settings: endpoint: mean survival time, higher = longer survival
Method in brief: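 Tumor cells were implanted, animals were treated, and survival was followed. The result divides the treated measurement by the vehicle-control measurement.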

[1] = dose: 200.0 mg/kg/injection, schedule: Q04DX003 (ip), vehicle: saline
[2] = dose: 100.0 mg/kg/injection, schedule: Q01DX009 (ip), vehicle: Klucel (hydroxypropylcellulose) (HPC)
[3] = dose: 200.0 mg/kg/injection, schedule: Q01DX009 (ip), vehicle: Klucel (hydroxypropylcellulose) (HPC)
[4] = dose: 400.0 mg/kg/injection, schedule: Q01DX009 (ip), vehicle: Klucel (hydroxypropylcellulose) (HPC)
[5] = dose: 100.0 mg/kg/injection, schedule: Q01DX009 (ip), vehicle: saline with Tween-80
[6] = dose: 200.0 mg/kg/injection, schedule: Q01DX009 (ip), vehicle: saline with Tween-80
[7] = dose: 400.0 mg/kg/injection, schedule: Q01DX009 (ip), vehicle: saline with Tween-80
[8] = dose: 100.0 mg/kg/injection, schedule: Q04DX002 (ip), vehicle: Klucel (hydroxypropylcellulose) (HPC)
[9] = dose: 200.0 mg/kg/injection, schedule: Q04DX002 (ip), vehicle: Klucel (hydroxypropylcellulose) (HPC)
[10] = dose: 400.0 mg/kg/injection, schedule: Q04DX002 (ip), vehicle: Klucel (hydroxypropylcellulose) (HPC)
[11] = dose: 100.0 mg/kg/injection, schedule: Q01DX001 (ip), vehicle: saline
[12] = dose: 200.0 mg/kg/injection, schedule: Q01DX001 (ip), vehicle: saline
[13] = dose: 100.0 mg/kg/injection, schedule: Q04DX003 (ip), vehicle: Klucel (hydroxypropylcellulose) (HPC)
[14] = dose: 200.0 mg/kg/injection, schedule: Q04DX003 (ip), vehicle: Klucel (hydroxypropylcellulose) (HPC)
[15] = dose: 400.0 mg/kg/injection, schedule: Q04DX003 (ip), vehicle: Klucel (hydroxypropylcellulose) (HPC)
[16] = dose: 100.0 mg/kg/injection, schedule: Q04DX003 (ip), vehicle: saline with Tween-80
[17] = dose: 200.0 mg/kg/injection, schedule: Q04DX003 (ip), vehicle: saline with Tween-80
[18] = dose: 400.0 mg/kg/injection, schedule: Q04DX003 (ip), vehicle: saline with Tween-80

Measured: T/C

Cc1cc(SCC(=O)c2ccc(Br)cc2)cc(C)[o+]1
inactive: dose: 25.0 mg/kg/injection, schedule: Q01DX009 (ip), vehicle: saline 92 % of control | dose: 50.0 mg/kg/injection, schedule: Q01DX009 (ip), vehicle: saline 107 % of control | dose: 100.0 mg/kg/injection, schedule: Q01DX009 (ip), vehicle: saline 100 % of control | dose: 100.0 mg/kg/injection, schedule: Q04DX003 (ip), vehicle: saline 97 % of control | [1] 92 % of control

O=C1CCCc2cc(Cl)c(Cl)cc21
inactive: [2] 108 % of control | [3] 96 % of control | [4] 101 % of control

COc1c(NC(=O)COc2ccc(Cl)cc2)cccc1[N+](=O)[O-]
inactive: [5] 96 % of control | [6] 100 % of control | [7] 94 % of control

C/C(=N/Nc1ccc([N+](=O)[O-])cc1[N+](=O)[O-])C(C)(C)C
inactive: dose: 25.0 mg/kg/injection, schedule: Q04DX002 (ip), vehicle: Klucel (hydroxypropylcellulose) (HPC) 87 % of control | dose: 50.0 mg/kg/injection, schedule: Q04DX002 (ip), vehicle: Klucel (hydroxypropylcellulose) (HPC) 93 % of control | [8] 101 % of control and 90 % of control | [9] 97 % of control | [10] 93 % of control

CCCCCCCCCCCCOc1ccc(C(=O)CC(=O)OCC)cc1
inactive: dose: 100.0 mg/kg/injection, schedule: Q01DX001 (ip), vehicle: acetone 95 % of control | dose: 200.0 mg/kg/injection, schedule: Q01DX001 (ip), vehicle: acetone 100 % of control | [1] 90 % of control | dose: 400.0 mg/kg/injection, schedule: Q01DX001 (ip), vehicle: acetone 108 % of control | dose: 400.0 mg/kg/injection, schedule: Q04DX003 (ip), vehicle: saline 89 % of control

Cc1cc(C)c(C2=C(Br)C(=O)C(c3c(C)cc(C)c(C)c3C)=C(Br)C2=O)c(C)c1C
inactive: dose: 100.0 mg/kg/injection, schedule: Q01DX001 (ip), vehicle: Klucel (hydroxypropylcellulose) (HPC) 98 % of control | dose: 200.0 mg/kg/injection, schedule: Q01DX001 (ip), vehicle: Klucel (hydroxypropylcellulose) (HPC) 103 % of control | dose: 400.0 mg/kg/injection, schedule: Q01DX001 (ip), vehicle: Klucel (hydroxypropylcellulose) (HPC) 98 % of control

O=C(NCCCl)NC(Cc1ccccc1)C(=O)O (stereo unspecified)
inactive: dose: 100.0 mg/kg/injection, schedule: Q01DX001 (ip), vehicle: saline with Tween-80 94 % of control | dose: 200.0 mg/kg/injection, schedule: Q01DX001 (ip), vehicle: saline with Tween-80 94 % of control | dose: 400.0 mg/kg/injection, schedule: Q01DX001 (ip), vehicle: saline with Tween-80 91 % of control

[O-][n+]1ccccc1/C=C\c1ccccc1
inactive: [11] 92 % of control | [12] 94 % of control

CCc1c[n+]([O-])c(C)cc1C(=O)O
inactive: [2] 92 % of control | [13] 97 % of control | [3] 92 % of control | [14] 95 % of control | [4] 92 % of control | [15] 95 % of control

CNCCCNCC(Cc1ccccc1)c1ccccc1 (stereo unspecified)
inactive: dose: 100.0 mg/kg/injection, schedule: Q04DX002 (ip), vehicle: saline 86 % of control

CC(C)(C)NC(=O)C(Cl)(Cl)Cl
inactive: dose: 31.25 mg/kg/injection, schedule: Q01DX009 (ip), vehicle: Klucel (hydroxypropylcellulose) (HPC) 98 % of control | dose: 62.5 mg/kg/injection, schedule: Q01DX009 (ip), vehicle: Klucel (hydroxypropylcellulose) (HPC) 107 % of control | dose: 125.0 mg/kg/injection, schedule: Q01DX009 (ip), vehicle: Klucel (hydroxypropylcellulose) (HPC) 109 % of control | dose: 250.0 mg/kg/injection, schedule: Q01DX009 (ip), vehicle: Klucel (hydroxypropylcellulose) (HPC) 94 % of control

COC1/C=C/OC2(C)Oc3c(C)c(O)c4c(O)c(c(/C=N/NC5CCCCCCCCCCCCCC5)c(O)c4c3C2=O)NC(=O)/C(C)=C\C=C\C(C)C(O)C(C)C(O)C(C)C(OC(C)=O)C1C (stereo unspecified)
inactive: dose: 100.0 mg/kg/injection, schedule: Q01DX003 (ip), vehicle: saline with Tween-80 95 % of control | dose: 200.0 mg/kg/injection, schedule: Q01DX003 (ip), vehicle: saline with Tween-80 95 % of control | dose: 400.0 mg/kg/injection, schedule: Q01DX003 (ip), vehicle: saline with Tween-80 102 % of control

CCCCCCCCC(=O)Nc1cccc(OC(=O)NC)c1
inactive: [16] 94 % of control | [17] 96 % of control | [18] 90 % of control

CC1=CC2c3c([nH]c(=S)[nH]c3=O)OC(C)(C)C2CC1 (stereo unspecified)
inactive: dose: 50.0 mg/kg/injection, schedule: Q01DX009 (ip), vehicle: Klucel (hydroxypropylcellulose) (HPC) 99 % of control | [2] 96 % of control | [3] 96 % of control

N#C/C(=C1C=C(Br)/C(=N\O)C=C\1Cl)c1ccc(Cl)cc1
inactive: dose: 100.0 mg/kg/injection, schedule: Q01DX009 (ip), vehicle: acetone 95 % of control | dose: 100.0 mg/kg/injection, schedule: Q04DX003 (ip), vehicle: acetone 100 % of control | dose: 200.0 mg/kg/injection, schedule: Q04DX003 (ip), vehicle: acetone 100 % of control | dose: 400.0 mg/kg/injection, schedule: Q04DX003 (ip), vehicle: acetone 94 % of control

NC(=O)c1ccccc1OC(=O)Nc1ccccc1F
inactive: [5] 106 % of control | [6] 107 % of control | [7] 107 % of control

Brc1ccccc1-c1ccccc1-c1ccccc1
inactive: [16] 92 % of control | [17] 100 % of control | [18] 92 % of control

COc1cc(N)c(C(F)(F)F)cc1OC
inactive: [5] 96 % of control | [16] 103 % of control | [6] 94 % of control | [17] 105 % of control | [7] 104 % of control | [18] 104 % of control

Cc1ccc2[nH]c3c(c2c1)CCCC3
inactive: dose: 50.0 mg/kg/injection, schedule: Q01DX001 (ip), vehicle: saline 101 % of control | [11] 101 % of control | [12] 107 % of control | dose: 400.0 mg/kg/injection, schedule: Q01DX001 (ip), vehicle: saline 101 % of control

OCc1ccccc1NCc1ccccc1
inactive: [2] 103 % of control | dose: 100.0 mg/kg/injection, schedule: Q04DX003 (ip), vehicle: other 105 % of control | [3] 91 % of control | dose: 200.0 mg/kg/injection, schedule: Q04DX003 (ip), vehicle: other 100 % of control | [4] 99 % of control | dose: 400.0 mg/kg/injection, schedule: Q04DX003 (ip), vehicle: other 97 % of control

O=C(OCc1ccccc1CN1CCOCC1)c1ccccc1
inactive: [8] 98 % of control | [9] 105 % of control | [10] 96 % of control

CC1=CC2C(O)(CC(CO)=CC3C4C(C)(C)C4(O)C(O)C(C)C32O)C1=O (stereo unspecified)
inactive: dose: 50.0 mg/kg/injection, schedule: Q01DX001 (ip), vehicle: saline sonified 112 % of control | dose: 100.0 mg/kg/injection, schedule: Q01DX001 (ip), vehicle: saline sonified 101 % of control | dose: 200.0 mg/kg/injection, schedule: Q01DX001 (ip), vehicle: saline sonified 91 % of control

Cc1ccc(Nc2nc(N)nc(N)c2N=O)cc1
inactive: dose: 25.0 mg/kg/injection, schedule: Q01DX Z (ip), vehicle: methylcellulose (MC) 101 % of control | dose: 50.0 mg/kg/injection, schedule: Q01DX Z (ip), vehicle: methylcellulose (MC) 90 % of control

CCOC(=O)Nc1cc(NCc2ccccc2)c(N)c(N)n1
inactive: [11] 96 % of control | [12] 97 % of control

Cc1ccc(Oc2ccc3c(c2)CN(C)CC3)cc1
inactive: [8] 97 % of control | [9] 102 % of control | [10] 91 % of control

COc1ccc(OC(=O)Nc2cc(C)ccc2C)cc1
inactive: [2] 91 % of control | [13] 94 % of control | [3] 90 % of control | [14] 97 % of control | [15] 108 % of control

C1=CC2C3C=CC(CC3)C2CC1 (stereo unspecified)
inactive: [16] 106 % of control | [17] 97 % of control | [18] 87 % of control
